From PMC11836537, “An isofagomine analogue with an amidine group in the 1,6-position” (Royal Society Open Science, 2025)
Read-outs that look alike come from different tables or passages of the source.

Legend:
[1] = cited from earlier work
β-galactosidase [2] = target: T1, β-galactosidase (Aspergillus oryzae, UniProt Q2UCU3); conditions: β-galactosidase from Aspergillus oryzae, pH 6.8; cited from earlier work
β-glucosidase [3] = conditions: cited from earlier work
α-galactosidase [4] = target: T2, α-galactosidase (Coffea arabica, UniProt Q42656); design: key to inhibition: NI = no inhibition; conditions: α-galactosidase from green coffee beans, pH 6.8; cited from earlier work
T2 sequence (Q42656 16-378): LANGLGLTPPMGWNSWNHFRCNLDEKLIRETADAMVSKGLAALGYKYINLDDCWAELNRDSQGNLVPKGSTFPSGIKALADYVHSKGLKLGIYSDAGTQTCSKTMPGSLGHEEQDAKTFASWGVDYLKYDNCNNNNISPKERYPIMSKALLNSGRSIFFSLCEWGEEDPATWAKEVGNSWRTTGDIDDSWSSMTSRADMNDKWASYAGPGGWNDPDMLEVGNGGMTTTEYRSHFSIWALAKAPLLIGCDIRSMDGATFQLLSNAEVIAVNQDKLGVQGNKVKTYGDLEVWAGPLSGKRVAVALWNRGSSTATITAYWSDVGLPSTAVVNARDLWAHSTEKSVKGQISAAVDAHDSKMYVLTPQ

α-mannosidase [5] = target: T3, α-mannosidase (Canavalia ensiformis, UniProt C0HJB3); conditions: α-mannosidase from jack beans, pH 5.6; cited from earlier work
T3 sequence (C0HJB3 1-981): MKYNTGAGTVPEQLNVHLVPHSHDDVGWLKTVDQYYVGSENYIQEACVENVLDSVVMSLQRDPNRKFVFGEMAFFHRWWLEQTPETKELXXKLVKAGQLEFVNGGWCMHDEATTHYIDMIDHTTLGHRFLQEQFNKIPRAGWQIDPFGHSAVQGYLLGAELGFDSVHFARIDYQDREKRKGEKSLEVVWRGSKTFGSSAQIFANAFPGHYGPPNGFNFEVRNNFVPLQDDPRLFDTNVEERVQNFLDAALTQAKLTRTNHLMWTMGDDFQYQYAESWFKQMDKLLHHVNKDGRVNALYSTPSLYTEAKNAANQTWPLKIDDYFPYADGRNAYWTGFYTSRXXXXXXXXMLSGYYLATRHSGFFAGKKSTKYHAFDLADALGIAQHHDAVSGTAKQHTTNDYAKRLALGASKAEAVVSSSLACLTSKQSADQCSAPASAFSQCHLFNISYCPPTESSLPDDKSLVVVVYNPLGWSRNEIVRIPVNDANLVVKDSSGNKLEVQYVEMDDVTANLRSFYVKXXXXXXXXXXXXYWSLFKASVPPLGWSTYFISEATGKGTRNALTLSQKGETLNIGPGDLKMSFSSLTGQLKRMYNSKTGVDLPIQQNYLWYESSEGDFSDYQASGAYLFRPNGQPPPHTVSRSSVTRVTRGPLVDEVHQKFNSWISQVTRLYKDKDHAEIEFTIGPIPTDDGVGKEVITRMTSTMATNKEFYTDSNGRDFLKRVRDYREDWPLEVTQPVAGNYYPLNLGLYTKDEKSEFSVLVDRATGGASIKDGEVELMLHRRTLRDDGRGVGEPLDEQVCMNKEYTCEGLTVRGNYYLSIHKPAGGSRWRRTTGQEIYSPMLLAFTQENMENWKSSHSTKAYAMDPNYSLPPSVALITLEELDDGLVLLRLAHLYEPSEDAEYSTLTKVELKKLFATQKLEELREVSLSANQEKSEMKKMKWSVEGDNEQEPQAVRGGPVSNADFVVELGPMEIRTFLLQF

β-galactosidase [6] = target: T1, β-galactosidase; assay: glycosidase inhibition, β-galactosidase (Aspergillus oryzae); assay type: biochemical
From the text: (§1) The glycosidase inhibitory activities (IC50 (µM)) of amidines 5 and 6 on a panel of six glycosidases are presented in table 1 and compared with structurally related isofagomine (3) and amidine 4.

[7] = pKa determination by NMR titration in D2O; assay type: physicochemical; conditions: for pH* at which degradation started: during NMR titration in D2O; for pKa: D2O
From the text: The pKa values for azasugars have been determined by NMR spectroscopy in other studies. This methodology was also applied in this study to determine the pKa value of 6. […] The sigmoidal curve is missing points at high pH* values (greater than 11) because 6 started degrading at roughly pH* 10.5. Recording of both a ^1H NMR and ^13C HSQC spectra at each titration point allowed us to track the changes in chemical shifts at pH levels higher than where the degradation initially started. The pKa of amidine 5 was determined at even lower accuracy than for 6, because it started degrading at roughly pH* 9.4, where there is no indication of 5 being deprotonated.

α-galactosidase [8] = target: T2, α-galactosidase; assay: glycosidase inhibition, α-galactosidase; assay type: biochemical
From the text: as §1

α-mannosidase [9] = target: T3, α-mannosidase; assay: glycosidase inhibition, α-mannosidase; assay type: biochemical; conditions: α-mannosidase from jack beans, pH 5.6
From the text: as §1

α-glucosidase = assay: glycosidase inhibition, α-glucosidase; assay type: biochemical; conditions: α-glucosidase from Saccharomyces cerevisiae, pH 6.8
From the text: as §1

[10] = test system: all tested enzymes (panel of six glycosidases); assay: glycosidase inhibition, whole panel of six glycosidases; assay type: biochemical; conditions: for glycosidase inhibition in words: all enzymes in the panel
From the text: as §1

β-glucosidase [11] = assay: glycosidase inhibition, β-glucosidase; assay type: biochemical; conditions: β-glucosidase from almonds, pH 6.8
From the text: as §1

β-galactosidase [12] = target: β-galactosidase (Escherichia coli, UniProt P00722); assay: glycosidase inhibition, β-galactosidase (Escherichia coli); assay type: biochemical
β-galactosidase (Escherichia coli, UniProt P00722), sequence (P00722 2-1024 limits assumed): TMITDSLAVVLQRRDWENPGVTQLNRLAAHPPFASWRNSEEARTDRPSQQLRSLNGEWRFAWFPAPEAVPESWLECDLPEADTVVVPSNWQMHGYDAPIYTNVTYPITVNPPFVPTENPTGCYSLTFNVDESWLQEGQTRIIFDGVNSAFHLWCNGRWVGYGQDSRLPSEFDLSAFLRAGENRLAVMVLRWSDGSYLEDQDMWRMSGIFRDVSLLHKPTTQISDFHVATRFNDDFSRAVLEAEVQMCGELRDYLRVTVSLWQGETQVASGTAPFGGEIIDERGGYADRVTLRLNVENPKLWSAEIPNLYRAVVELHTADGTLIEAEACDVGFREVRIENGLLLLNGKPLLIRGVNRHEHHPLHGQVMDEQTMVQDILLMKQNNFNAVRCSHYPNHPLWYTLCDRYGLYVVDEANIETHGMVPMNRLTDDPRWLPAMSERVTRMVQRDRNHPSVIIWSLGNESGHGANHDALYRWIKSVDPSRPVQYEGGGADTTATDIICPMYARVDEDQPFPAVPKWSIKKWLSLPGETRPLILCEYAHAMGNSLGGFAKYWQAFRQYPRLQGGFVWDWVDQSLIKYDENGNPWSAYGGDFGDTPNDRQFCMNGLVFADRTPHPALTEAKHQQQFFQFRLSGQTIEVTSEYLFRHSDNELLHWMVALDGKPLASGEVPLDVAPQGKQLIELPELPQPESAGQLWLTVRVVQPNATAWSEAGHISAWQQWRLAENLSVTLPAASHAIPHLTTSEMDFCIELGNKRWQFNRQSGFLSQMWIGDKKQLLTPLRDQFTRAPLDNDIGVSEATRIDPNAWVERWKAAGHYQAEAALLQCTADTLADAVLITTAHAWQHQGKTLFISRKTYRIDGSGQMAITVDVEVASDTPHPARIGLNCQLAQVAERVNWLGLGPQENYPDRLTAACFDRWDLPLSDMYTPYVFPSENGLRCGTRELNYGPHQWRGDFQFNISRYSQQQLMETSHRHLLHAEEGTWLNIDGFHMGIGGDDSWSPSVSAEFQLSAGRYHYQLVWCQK
From the text: as §1

[13] = β-glucosidase from almonds, pH 6.8

T1 sequence (Q2UCU3 19-1005): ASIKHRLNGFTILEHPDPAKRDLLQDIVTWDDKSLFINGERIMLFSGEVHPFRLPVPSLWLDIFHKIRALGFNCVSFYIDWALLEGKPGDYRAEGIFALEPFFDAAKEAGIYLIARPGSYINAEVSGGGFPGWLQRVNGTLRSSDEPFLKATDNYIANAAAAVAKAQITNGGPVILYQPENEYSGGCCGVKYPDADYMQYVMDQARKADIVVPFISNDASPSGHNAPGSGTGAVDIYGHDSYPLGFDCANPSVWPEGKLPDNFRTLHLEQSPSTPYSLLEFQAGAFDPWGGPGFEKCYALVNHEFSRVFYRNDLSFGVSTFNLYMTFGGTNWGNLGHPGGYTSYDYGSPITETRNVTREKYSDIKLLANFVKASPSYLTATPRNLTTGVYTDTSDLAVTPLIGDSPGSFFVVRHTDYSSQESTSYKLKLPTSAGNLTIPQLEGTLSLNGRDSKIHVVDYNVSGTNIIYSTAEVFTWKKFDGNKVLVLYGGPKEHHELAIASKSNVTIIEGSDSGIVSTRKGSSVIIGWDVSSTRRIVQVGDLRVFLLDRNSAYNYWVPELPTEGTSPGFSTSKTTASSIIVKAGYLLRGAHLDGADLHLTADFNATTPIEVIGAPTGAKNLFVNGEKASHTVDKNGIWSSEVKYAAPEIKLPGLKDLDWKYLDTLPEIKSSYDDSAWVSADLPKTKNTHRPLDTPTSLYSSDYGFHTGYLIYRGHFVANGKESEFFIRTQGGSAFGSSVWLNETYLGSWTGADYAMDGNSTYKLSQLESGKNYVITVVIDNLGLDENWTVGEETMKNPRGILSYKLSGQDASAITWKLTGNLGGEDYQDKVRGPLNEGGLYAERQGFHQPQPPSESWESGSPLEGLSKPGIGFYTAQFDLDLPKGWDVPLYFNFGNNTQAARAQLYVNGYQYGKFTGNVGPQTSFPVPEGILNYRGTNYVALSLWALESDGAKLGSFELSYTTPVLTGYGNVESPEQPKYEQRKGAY

For NC1=N[C@H](CO)[C@@H](O)[C@H](O)[C@H]1O [compound 2, ᴅ-glucoamidine], the pKa [1] is listed as at least 10.5 and the “fold stronger base than 1” value ([1]; compared with 1-deoxynojirimycin (1)) is listed as “roughly 7900 fold”.

In the case of OC[C@H]1CNC[C@@H](O)[C@@H]1O [compound 3, isofagomine], the IC50 (β-galactosidase [2]) is listed as 270 µM, the Ki (β-glucosidase [3]; almond β-glucosidase) is listed as 0.11 µM and the Ki (β-glucosidase [3]; [13]) is listed as 0.11 µM. The IC50 (α-galactosidase [4]) was over 2000 µM and the IC50 (α-mannosidase [5]) was 250 µM.

For N=C1NC[C@H](CO)[C@@H](O)[C@@H]1O [compound 4], the Ki (β-galactosidase [2]) is given as 17400 µM, the Ki (β-glucosidase [3]; [13]) is given as 450 µM and the inhibition (α-galactosidase [4]) is given as “NI^g,i”. For the same compound, the Ki (α-mannosidase [5]) was 0.75 µM.

For N=C1NC[C@@H](O)[C@H](O)[C@H]1CO [compound 5], the IC50 (β-galactosidase [6]; β-galactosidase from Aspergillus oryzae, pH 6.8, read-out: IC50) was over 50 µM, the “pH* at which degradation started” value [7] was about 9.4 and the IC50 (α-galactosidase [8]; α-galactosidase from green coffee beans, pH 6.8, read-out: IC50) was over 50 µM. The IC50 (α-mannosidase [9]) was over 50 µM, the IC50 (α-glucosidase) was over 50 µM and the “glycosidase inhibition in words” value [10] was “very poor inhibitor”. It also gave an IC50 ([10]; all tested enzymes, read-out: IC50 against all tested enzymes) of over 50 µM, an IC50 (β-glucosidase [11]) of over 50 µM and an IC50 (β-galactosidase [12]; β-galactosidase from Escherichia coli, pH 6.8, read-out: IC50) of over 50 µM.

Work on N=C1[C@H](CO)[C@@H](O)[C@H](O)CN1Cc1ccccc1 [compound 6] yielded an IC50 (β-galactosidase [6]) of over 50 µM, a pKa ([7]; inflection point of 2-Ha chemical shift versus pH* (pH measured in D2O), read-out: pKa*) of over 11 and a pKa ([7]; pKa* corrected with a correction factor, read-out: pKa (corrected)) of over 10.6. For the same compound, the “pH* at which degradation started” value [7] was about 10.5, the IC50 (α-galactosidase [8]) was over 50 µM and the IC50 (α-mannosidase [9]) was over 50 µM. For the same compound, the IC50 (α-glucosidase) was over 50 µM, the “glycosidase inhibition in words” value [10] was “very weak inhibitor” and the IC50 (β-glucosidase [11]) was over 50 µM. It also gave an IC50 (β-galactosidase [12]) of over 50 µM.
